Data taken from ChEMBL document CHEMBL4507299, “Data for DCP probe PF-04554878” (2021).

Experiments:
[1] = molecular target: Myosin light chain kinase 2, skeletal/cardiac muscle (Homo sapiens) (UniProt Q9H1R3); test: MYLK2 Invitrogen kinase activity assay; conditions: Compound concentration 1.0 uM
[2] = molecular target: T1, Tyrosine-protein kinase JAK3 (Homo sapiens) (UniProt P52333); conditions: Compound concentration 1.0 uM
T1 sequence (whole entry): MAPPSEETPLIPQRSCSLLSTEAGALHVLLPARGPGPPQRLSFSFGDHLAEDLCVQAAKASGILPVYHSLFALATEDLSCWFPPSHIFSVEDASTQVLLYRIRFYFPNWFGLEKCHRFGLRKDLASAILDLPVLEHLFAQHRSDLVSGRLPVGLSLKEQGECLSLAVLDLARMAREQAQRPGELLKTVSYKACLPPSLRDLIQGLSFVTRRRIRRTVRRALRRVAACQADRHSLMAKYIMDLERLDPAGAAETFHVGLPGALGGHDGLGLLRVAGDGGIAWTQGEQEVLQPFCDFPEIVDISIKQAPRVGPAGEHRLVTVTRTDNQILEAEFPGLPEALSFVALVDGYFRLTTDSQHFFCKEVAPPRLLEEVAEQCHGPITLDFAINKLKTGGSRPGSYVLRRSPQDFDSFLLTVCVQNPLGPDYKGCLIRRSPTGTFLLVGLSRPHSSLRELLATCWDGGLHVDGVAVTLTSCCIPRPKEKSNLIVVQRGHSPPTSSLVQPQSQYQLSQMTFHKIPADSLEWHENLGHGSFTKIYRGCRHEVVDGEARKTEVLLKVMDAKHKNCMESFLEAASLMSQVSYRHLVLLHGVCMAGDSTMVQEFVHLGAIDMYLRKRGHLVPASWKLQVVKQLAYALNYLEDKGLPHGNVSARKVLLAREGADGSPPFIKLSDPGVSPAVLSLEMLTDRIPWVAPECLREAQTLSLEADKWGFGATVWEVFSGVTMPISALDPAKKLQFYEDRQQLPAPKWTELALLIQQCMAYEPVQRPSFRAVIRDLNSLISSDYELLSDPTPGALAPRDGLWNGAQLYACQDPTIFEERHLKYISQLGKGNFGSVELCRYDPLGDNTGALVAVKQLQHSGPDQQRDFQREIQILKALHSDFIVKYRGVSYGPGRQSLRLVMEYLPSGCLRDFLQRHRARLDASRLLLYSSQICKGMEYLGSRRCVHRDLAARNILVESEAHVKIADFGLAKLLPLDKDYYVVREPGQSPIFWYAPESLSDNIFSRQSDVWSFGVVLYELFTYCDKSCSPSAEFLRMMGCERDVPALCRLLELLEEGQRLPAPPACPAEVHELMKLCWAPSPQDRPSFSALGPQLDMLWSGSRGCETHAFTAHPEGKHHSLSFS

Chain of Myosin light chain kinase 2, skeletal/cardiac muscle (Homo sapiens) (Q9H1R3 whole entry): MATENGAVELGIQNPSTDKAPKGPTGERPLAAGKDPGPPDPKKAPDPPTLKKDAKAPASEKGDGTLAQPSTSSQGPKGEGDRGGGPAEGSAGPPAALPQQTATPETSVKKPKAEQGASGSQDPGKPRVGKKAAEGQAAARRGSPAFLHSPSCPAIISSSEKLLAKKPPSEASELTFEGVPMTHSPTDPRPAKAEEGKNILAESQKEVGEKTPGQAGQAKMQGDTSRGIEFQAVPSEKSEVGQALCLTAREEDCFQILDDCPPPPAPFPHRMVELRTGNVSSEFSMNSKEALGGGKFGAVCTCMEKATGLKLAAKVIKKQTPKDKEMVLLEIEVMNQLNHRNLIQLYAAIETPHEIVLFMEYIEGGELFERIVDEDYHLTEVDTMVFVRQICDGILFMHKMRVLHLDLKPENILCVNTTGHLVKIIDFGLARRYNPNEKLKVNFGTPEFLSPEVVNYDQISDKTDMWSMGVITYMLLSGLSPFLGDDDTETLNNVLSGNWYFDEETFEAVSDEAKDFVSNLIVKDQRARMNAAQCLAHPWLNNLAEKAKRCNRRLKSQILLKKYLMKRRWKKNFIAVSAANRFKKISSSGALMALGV

## CNC(=O)c1ccc(Nc2ncc(C(F)(F)F)c(NCc3nccnc3N(C)S(C)(=O)=O)n2)cc1 [DEFACTINIB]
[1]
  inhibition: 8%
[2]
  inhibition: 94%
